Consider 4 compounds from US20220151989A1, “LIPOIC ACID PRODRUG” (SANTEN PHARMACEUTICAL CO., LTD., priority 2019, published 2022).

In experiment [1] the test system is lens elasticity. The experiment is described as follows: Pharmacological Test-1: lens elasticity after instillation 3 times per day for 12 to 15 days. As to conditions: for Lens elasticity improvement: 0.03% (w/v) solution, 2.5 μL/eye, right eye, 3 times per day for 12 to 15 days, 8-month-old mice, vs vehicle control; for lens elasticity improving effect: at a concentration of 0.03%. It is filed as in vivo, C57BL/6J mice. How it is done:
The effects of compounds 1 to 4 on the lens elasticity were examined. The tests were conducted with reference to the methods described in Invest Ophthalmol Vis Sci, 57, 2851-2863, 2016.
A vehicle (aqueous solution) comprising 0.1% (w/v) of ethyl pyruvate, 0.269% (w/v) of sodium dihydrogenphosphate monohydrate (NaH2PO4.H2O), 0.433% (w/v) of di sodium hydrogenphosphate (Na2HPO4), 0.2% (w/v) of hydroxypropyl methylcellulose, 0.5% (w/v) of NaCl, 1.0% (w/v) of polyoxyl 35 castor oil (hereinafter also referred to as “CO35”), and purified water (appropriate amount) was prepared.
Each of compounds 1 to 4 was stirred with the addition of the vehicle to give a 0.03% (w/v) solution.
EV06 was stirred with the addition of the vehicle to give a 0.03% (w/v) solution. (Test method) 1) Each test sample (2.5 μL/eye) was instilled into the right eye of 8-month-old C57BL/6J mice with a Pipetman 3 times per day (around 9:00, 13:00, 17:00) for 12 to 15 days. 2) After the final instillation, the mice were euthanized by carbon dioxide inhalation, and then the eyeballs were extracted and rinsed with Hank's balanced salt solution (HESS). 3) The sclera near the optic nerve was cut with a razor, the lens was removed through the incision, and the removed lens was immersed in HESS. 4) The lens was placed on a glass slide, and an all-in-one fluorescence microscope BZ-9000 (Keyence) was used to capture an image of the lens (Image a). 5) Next, one cover glass (Corning^registered trade mark) 22×22 mm Square) was placed on the lens, and an image in which the thickness of the lens changed due to the weight was similarly captured (Image b). 6) A change in the lens diameter was calculated from the following Equation 1 wherein the lens diameter of Image a is subtracted from the lens diameter of Image b. Then, the lens elasticity improvement of each sample group compared with the vehicle control group was calculated from Equation 2 described below. The mean value of the vehicle control group was based on 5 eyes, the mean value of each of the sample groups of compounds 1 to 4 was based on 10 eyes, and the mean value of EV06 sample group was based on 9 eyes.
(§1) Change in lens diameter=Lens diameter in Image b of each test sample−Lens diameter in Image a of each test sample (Equation 1)
(§2) Lens elasticity improvement of each sample group=Mean change in lens diameter of each Test sample group−Mean change in lens diameter of Vehicle control group (Equation 2)

In experiment [2] the test system is lens elasticity. The experiment is described as follows: Pharmacological Test-2: lens elasticity at different concentrations, instillation 3 times per day for 12 to 15 days. It counts as in vivo, C57BL/6J mice. The following applies: for Lens elasticity improvement: 3 times per day for 12 to 15 days, 7 to 8-month-old mice. How it is done: The effects of Compounds 1, 3, and 4 on the lens elasticity were investigated at different concentrations.
Vehicle A (aqueous solution) comprising 0.1% (w/v) of ethyl pyruvate, 0.269% (w/v) of sodium dihydrogenphosphate monohydrate (NaH2PO4.H2O), 0.433% (w/v) of disodium hydrogenphosphate (Na2HPO4), 0.2% (w/v) of hydroxypropyl methylcellulose, 0.5% (w/v) of NaCl, 0.2% (w/v) of 0035, and purified water (appropriate amount) was prepared.
Vehicle B (emulsion) comprising 0.1% (w/v) of ethyl pyruvate, 0.269% (w/v) of sodium dihydrogenphosphate monohydrate (NaH2PO4.H2O), 0.433% (w/v) of disodium hydrogenphosphate (Na2HPO4), 0.2% (w/v) of hydroxypropyl methylcellulose, 0.5% (w/v) of NaCl, 0.2% (w/v) of CO35, 0.6% benzyl benzoate, and purified water (appropriate amount) was prepared.
Vehicle C (aqueous solution) comprising 0.1% (w/v) of ethyl pyruvate, 0.269% (w/v) of sodium dihydrogenphosphate monohydrate (NaH2PO4.H2O), 0.433% (w/v) of disodium hydrogenphosphate (Na2HPO4), 0.2% (w/v) of hydroxypropyl methylcellulose, 0.5% (w/v) of NaCl, 1.0% (w/v) of 0035, and purified water (appropriate amount) was prepared.
Vehicle D (emulsion) comprising 0.1% (w/v) of ethyl pyruvate, 0.269% (w/v) of sodium dihydrogenphosphate monohydrate (NaH2PO4.H2O), 0.433% (w/v) of disodium hydrogenphosphate (Na2HPO4), 0.2% (w/v) of hydroxypropyl methylcellulose, 0.5% (w/v) of NaCl, 1.0% (w/v) of CO35, 3.0% benzyl benzoate, and purified water (appropriate amount) was prepared.
A diluent (aqueous solution) comprising 0.1% (w/v) of ethyl pyruvate, 0.269% (w/v) of sodium dihydrogenphosphate monohydrate (NaH2PO4.H2O), 0.433% (w/v) of disodium hydrogenphosphate (Na2HPO4), 0.2% (w/v) of hydroxypropyl methylcellulose, 0.5% (w/v) of NaCl, and purified water (appropriate amount) was prepared.
Compound 1 was stirred with the addition of Vehicle C to prepare a 1.5% (w/v) emulsion, and the emulsion was diluted with the diluent to give a 0.3% (w/v) emulsion. Further, the resulting 0.3% (w/v) emulsion was diluted with the diluent to give a 0.03% (w/v) emulsion. Further, the resulting 0.03% (w/v) emulsion was diluted with the diluent to give a 0.003% (w/v) emulsion.
Compound 3 was stirred with the addition of Vehicle C to give a 1.5% (w/v) solution, and the resulting solution was diluted to give a 0.3% (w/v) solution. Further, the resulting 0.3% (w/v) solution was diluted with Vehicle A to give a 0.03% (w/v) solution. Further, the resulting 0.03% (w/v) solution was diluted with Vehicle A to give a 0.003% (w/v) solution.
Compound 4 was stirred with the addition of Vehicle D to give a 1.5% (w/v) emulsion, and the resulting emulsion was diluted with the diluent to prepare a 0.3% (w/v) emulsion. Further, the resulting 0.3% (w/v) emulsion was diluted with the diluent to give a 0.03% (w/v) emulsion. Further, the resulting 0.03% (w/v) emulsion was diluted with the diluent to give a 0.003% (w/v) emulsion.
EV06 was stirred with the addition of Vehicle A to give a 1.5% (w/v) solution, which was used for comparison to the samples of Compound 1 and 3.
EV06 was sonicated with the addition of Vehicle B to give a 1.5% (w/v) emulsion, which was used for comparison to Compound 4 sample.
(Test method) 1) Each test sample (2.5 μL/eye) was instilled into the right eye of 7 to 8-month-old C57BL/6J mice with a Pipetman 3 times per day (around 9:00, 13:00 and 17:00) for 12 to 15 days. 2) After the final instillation, the mice were euthanized by carbon dioxide inhalation, and then the eyeballs were extracted and rinsed with Hank's balanced salt solution (HESS). 3) The sclera near the optic nerve was cut with a razor, the lens was removed through the incision, and the removed lens was immersed in HESS. 4) The lens was placed on a glass slide, and an all-in-one fluorescence microscope BZ-9000 (Keyence) was used to capture an image of the lens (Image a). […]

Experiment [3] deals with lens elasticity. The experiment is described as follows: Pharmacological Test-3: lens elasticity, Compounds 5 and 6, 3 times per day for 14 days. It is filed as in vivo,  mice. As to conditions: for Lens elasticity improvement: 0.03% (w/v) solution in Vehicle C, both eyes, 3 times per day for 14 days, 9-month-old mice; for lens elasticity improving effect: at a concentration of 0.03%. How it is done: The effects of Compounds 5 and 6 on the lens elasticity were investigated.
Compound 5 was stirred with the addition of Vehicle C to give a 0.03% (w/v) solution.
Compound 6 was stirred with the addition of Vehicle C to give a 0.03% (w/v) solution.
EV06 was stirred with the addition of Vehicle C to give a 0.03% (w/v) solution, which was used for comparison to the samples of Compounds 5 and 6.
1) Each test sample (2.5 μL/eye) was instilled into both eyes of 9-month-old […] mice with a Pipetman 3 times per day (around 9:00, 13:00 and 17:00) for 14 days. 2) After the final instillation, the mice were euthanized by carbon dioxide inhalation, and then the eyeballs were extracted and rinsed with Hank's balanced salt solution (HESS). 3) The sclera near the optic nerve was cut with a razor, the lens was removed through the incision, and the removed lens was immersed in HESS. 4) The lens was placed on a glass slide, and an all-in-one fluorescence microscope BZ-9000 (Keyence) was used to capture an image of the lens (Image a). 5) Next, one cover glass (Corning^(registered trade mark) 22×22 mm Square) was placed on the lens, and an image in which the thickness of the lens changed due to the weight was similarly captured (Image b). 6) A change in the lens diameter was calculated from the following Equation 1 wherein the lens diameter of Image a is subtracted from the lens diameter of Image b. Then, the lens elasticity improvement of each sample group compared with the vehicle control group was calculated from Equation 2 described below. The mean value of the vehicle control group was based on 8 eyes, and the mean value of each of the sample groups of Compounds 5 and 6 and EV06 was based on 10 eyes.
as §1, §2

For the compound `C[N+](C)(CCOC(=O)CCCC[C@@H]1CCSS1)Cc1ccccc1.[Cl-]` [Compound 2, (R)-2-((5-(1,2-Dithiolan-3-yl)pentanoyl)oxy)-N-benzyl-N,N-dimethylethan-1-aminium chloride], in the experiment on lens elasticity [1], the Lens elasticity improvement was found to be 6.1 μm and the “lens elasticity improving effect” value is “did not show lens elasticity improving effect”.

`O=C(CCCC[C@@H]1CCSS1)OCCN1CCOCC1` [Compound 4, 2-Morpholinoethyl (R)-5-(1,2-dithiolan-3-yl)pentanoate]: the Lens elasticity improvement in the experiment with lens elasticity [1] was found to be 37.5 μm; in the experiment on lens elasticity [2] (0.003% (w/v) sample), 25.0 μm; in the experiment with lens elasticity [2] (0.03% (w/v) sample), 56.5 μm; with lens elasticity [2] (0.3% (w/v) sample), 52.9 μm. Also, the “lens elasticity improving effect” value in the experiment on lens elasticity [1] is given as “potent lens elasticity improving effect”. Besides, the “lens elasticity improvement compared with 1.5% EV06 group” value in the experiment on lens elasticity [2] (0.03% and 0.3% sample groups) is reported as “equivalent to or better than 1.5% EV06 group”.

As for `O=C(CCCC[C@@H]1CCSS1)OC(CN1CCOCC1)CN1CCOCC1` [Compound 5, 1,3-Dimorpholinopropan-2-yl (R)-5-(1,2-dithiolan-3-yl)pentanoate], in the experiment with lens elasticity [3], the Lens elasticity improvement is 40.7 μm and the “lens elasticity improving effect” value is on record as “potent lens elasticity improving effect”.

With `Cc1ncc(COC(=O)CCCC[C@@H]2CCSS2)c2c1OC(C)(C)OC2` [Compound 6, (2,2,5-Trimethyl-4H-[1,3]dioxo[5,4-c]pyridin-8-yl)methyl (R)-5-(1,2-dithiolan-3-yl)pentanoate], in the experiment on lens elasticity [3], the Lens elasticity improvement is recorded as 38.1 μm and the “lens elasticity improving effect” value was “potent lens elasticity improving effect”.
